The source of these data is PubChem BioAssay AID1259246 (Broad Institute, 2017).

“And” between values parts separate entries of the source, which are not always exact repeats. Equal values may be shown once. Results filed as inconclusive are left out. The source made the active and inactive calls.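 How the source made its calls: active means valid dose-response fit whose half-maximal growth-inhibiting concentration is at or below a set limit above the top tested dose; inconclusive means flat fit with effect between 30 and 70%, or poor fit; inactive means half-maximal concentration above a set limit.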

As a reminder, the IC50 is the point on the concentration scale where inhibition reaches its midpoint.

Test system in the first assay: not listed separately
The assay is described as follows: antibacterial activity against Clostridioides difficile – 10-point retest, dose response (AID 1259246). Particulars: Clostridioides difficile clinical isolate growth, OD600, 24 h; at 60 µM (top of the series).
In the case of `C[C@H](CO)N1C[C@H](C)[C@@H](CN(C)S(=O)(=O)c2cn(C)cn2)OCCCC[C@H](C)Oc2ccc(NC(=O)Nc3cccc4ccccc34)cc2C1=O`, the activity change, negative = inhibition is 4.46% (inactive).
On to `COC(=O)[C@@H]1[C@@H](CO)[C@@H]2Cn3c(ccc(-c4cccc(F)c4)c3=O)[C@@H]2N1C(C)=O`, for which the activity change, negative = inhibition is 9.82% (inactive).
On the same count and under the same terms, with `O=C(O)C[C@H]1C[C@@H]2c3cc(NC(=O)C4CCC4)ccc3O[C@@H]2[C@@H](CO)O1` the figure was -2.3% (inactive).

Staying with this assay, now noted: Clostridioides difficile clinical isolate growth, OD600, 24 h; at 120 µM (top of the series).
On to `CNC[C@H]1Oc2cc(Br)ccc2S(=O)(=O)N([C@@H](C)CO)C[C@H]1C`, for which the activity change, negative = inhibition was 5.27% (inactive).
For the compound `C[C@H](CO)N1C[C@H](C)[C@H](CN(C)Cc2ccc(-c3ccccc3)cc2)Oc2ccc(NC(=O)CCCN(C)C)cc2CC1=O`, the activity change, negative = inhibition was 37.3% (inactive).
As for `C[C@@H]1CN([C@H](C)CO)C(=O)Cc2cc(NC(=O)C3CC3)ccc2O[C@@H]1CN(C)Cc1ccccc1`, the activity change, negative = inhibition is -3.71% (inactive).
Turning to `Cc1ccc(S(=O)(=O)N[C@@H]2CC[C@H](CCNS(=O)(=O)Cc3ccccc3)O[C@H]2CO)cc1`, the activity change, negative = inhibition was -2.21% (inactive).
As for `Cc1ccc(S(=O)(=O)N[C@@H]2CC[C@H](CCNS(=O)(=O)Cc3ccccc3)O[C@@H]2CO)cc1`, the activity change, negative = inhibition is -5.03% (inactive).
On to `C[C@@H]1CN([C@@H](C)CO)S(=O)(=O)c2ccc(/C=C/c3ccccc3)cc2O[C@H]1CN(C)Cc1cccnc1`, for which the activity change, negative = inhibition was 71.2% (inactive).
The same measure, in the same setting: with `C[C@@H]1CN([C@@H](C)CO)C(=O)Cc2cc(NC(=O)C3CC3)ccc2O[C@@H]1CN(C)Cc1ccc(C(F)(F)F)cc1` the figure was 21.2% (inactive).
The same measure, in the same setting: with `O=C(C[C@@H]1C[C@H]2c3cc(NC(=O)Nc4ccc(F)cc4)ccc3O[C@H]2[C@@H](CO)O1)NC1CCCCC1` the figure was -2.82% (inactive); with `COc1ccc(NC(=O)Nc2cccc3c2O[C@H](CN(C)Cc2ccc(Oc4ccccc4)cc2)[C@@H](C)CN([C@H](C)CO)C3=O)cc1`, 17.1% (inactive); with `C[C@@H]1CN([C@H](C)CO)C(=O)c2cccc(NC(=O)Nc3ccc(C(F)(F)F)cc3)c2O[C@@H]1CN(C)C(=O)NC1CCCCC1`, 7.85% (inactive).
As for `C[C@H]1CN([C@@H](C)CO)C(=O)c2cccc(NC(=O)Nc3ccccc3)c2O[C@@H]1CN(C)Cc1ccc(Oc2ccccc2)cc1`, the activity change, negative = inhibition was 27.9% (inactive).
Take `C[C@@H]1CN([C@H](C)CO)C(=O)c2cc(NS(=O)(=O)c3ccccc3)ccc2O[C@@H](C)CCCCO[C@H]1CN(C)S(=O)(=O)c1ccc(F)cc1`: the activity change, negative = inhibition is 12.7% (inactive).
The same measure, in the same setting: with `C[C@@H]1CN([C@H](C)CO)C(=O)Cc2cc(NC(=O)C3CC3)ccc2O[C@H]1CN(C)Cc1ccc(-c2ccccc2)cc1` the figure was 18.8% (inactive).
In the case of `C[C@@H]1CCCCO[C@H](CN(C)C)[C@H](C)CN([C@H](C)CO)C(=O)c2cc(NC(=O)c3ccncc3)ccc2O1`, the activity change, negative = inhibition was 45.3% (inactive).
Regarding `CO[C@@H]1CN(C)C(=O)c2ccc(NC(=O)c3ccc(-c4ccccc4)cc3)cc2OC[C@H](C)NC[C@H]1C`, the activity change, negative = inhibition was 8.57% (inactive).
Consider `CO[C@H]1CN(C)C(=O)c2cc(NC(=O)c3nc4ccccc4s3)ccc2OC[C@@H](C)N(Cc2ccncc2)C[C@H]1C`, for which the activity change, negative = inhibition was 5.99% (inactive).
Regarding `C[C@@H]1CN([C@H](C)CO)S(=O)(=O)c2ccc(C#CCN(C)C)cc2O[C@@H]1CN(C)Cc1ccc(F)cc1`, the activity change, negative = inhibition is 0.874% (inactive).
Consider `C[C@@H]1CN([C@@H](C)CO)C(=O)Cc2cc(NC(=O)CCC(F)(F)F)ccc2O[C@H]1CN(C)Cc1ccc(-c2ccccc2)cc1`, for which the activity change, negative = inhibition was 37.3% (inactive).
For the compound `COC(=O)C[C@H]1C[C@@H]2c3cc(NC(=O)C4CCC4)ccc3O[C@@H]2[C@@H](CO)O1`, the activity change, negative = inhibition was -6.56% (inactive).
`CC(C)CC#Cc1ccc2c(c1)O[C@H](CN(C)Cc1ccccc1F)[C@H](C)CN([C@H](C)CO)S2(=O)=O`: the activity change, negative = inhibition was 21.7% (inactive).
For the compound `C[C@@H]1CN([C@H](C)CO)S(=O)(=O)c2ccc(/C=C/c3ccccc3)cc2O[C@H]1CN(C)C(=O)c1ccncc1`, the activity change, negative = inhibition was 17.1% (inactive).
The same measure, in the same setting: with `C[C@H]1CN([C@@H](C)CO)S(=O)(=O)c2ccc(Br)cc2O[C@@H]1CN(C)Cc1cccnc1` the figure was -0.003% (inactive); with `C[C@@H]1CN([C@@H](C)CO)C(=O)c2cc(NC(=O)NC3CCCCC3)ccc2O[C@@H]1CN(C)C(=O)Nc1ccc(F)cc1`, 58.5% (inactive).
Same read-out and setting: with `C[C@@H]1CN([C@@H](C)CO)C(=O)c2cccc(NC(=O)Nc3ccc4c(c3)OCO4)c2O[C@@H]1CN(C)C(=O)Nc1cccc2ccccc12` the figure was 6.09% (inactive); with `CC(C)CC#Cc1ccc2c(c1)O[C@@H](CN(C)Cc1cccnc1)[C@H](C)CN([C@@H](C)CO)S2(=O)=O`, 29.9% (inactive).
With `COc1ccc(NC(=O)N(C)C[C@H]2Oc3ccc(NC(=O)C4CC4)cc3CC(=O)N([C@H](C)CO)C[C@H]2C)cc1`, the activity change, negative = inhibition was -3.71% (inactive).
Regarding `C[C@H]1CN([C@@H](C)CO)C(=O)Cc2cc(NC(=O)CCCN(C)C)ccc2O[C@@H]1CN(C)Cc1ccc(Oc2ccccc2)cc1`, the activity change, negative = inhibition is 32.2% (inactive).
The same measure, in the same setting: with `Cc1ccc(S(=O)(=O)N[C@H]2CC[C@H](CCNC(=O)Cc3ccccn3)O[C@H]2CO)cc1` the figure was -0.997% (inactive); with `C[C@@H]1CCCCO[C@@H](CN(C)S(=O)(=O)c2ccc(F)cc2)[C@H](C)CN([C@@H](C)CO)C(=O)c2cc(NC(=O)Nc3cccc4ccccc34)ccc2O1`, 18.9% (inactive); with `C[C@H](CO)N1C[C@H](C)[C@@H](CN(C)C(=O)NC2CCCCC2)Oc2c(NC(=O)Nc3ccc(F)cc3)cccc2C1=O`, 9.73% (inactive).
On to `COc1ccccc1CNC(=O)C[C@H]1C[C@@H]2c3cc(NC(=O)NC4CCCC4)ccc3O[C@@H]2[C@@H](CO)O1`, for which the activity change, negative = inhibition was -0.476% (inactive).
On the same count and under the same terms, with `C/C=C/c1ccc2c(c1)O[C@H](CN(C)CC1CCOCC1)[C@H](C)CN([C@H](C)CO)S2(=O)=O` the figure was -5.69% (inactive); with `CO[C@H]1CN(C)C(=O)c2cc(NC(=O)c3nc4ccccc4s3)ccc2OC[C@H](C)N(Cc2ccncc2)C[C@@H]1C`, 4.91% (inactive); with `CO[C@H]1CN(C)C(=O)c2cc(NC(=O)c3ccc(-c4ccccc4)cc3)ccc2OC[C@@H](C)NC[C@@H]1C`, 30.6% (inactive).
Take `CNC[C@H]1OCCCC[C@H](C)Oc2ccc(NC(=O)Nc3cccc4ccccc34)cc2C(=O)N([C@H](C)CO)C[C@@H]1C`: the activity change, negative = inhibition is 11.4% (inactive).
In the case of `CO[C@H]1CN(C)C(=O)c2ccc(NC(=O)C3CCC3)cc2OC[C@H](C)N(Cc2ccncc2)C[C@@H]1C`, the activity change, negative = inhibition was -5.3% (inactive).
For the compound `C[C@@H]1CN([C@@H](C)CO)C(=O)Cc2cc(NC(=O)c3ccncc3)ccc2O[C@@H]1CN(C)Cc1ccc(-c2ccccc2)cc1`, the activity change, negative = inhibition was 19.7% (inactive).

Still in this assay, the particulars now being: Clostridioides difficile clinical isolate growth, OD600, 24 h; at 135 µM (top of the series).
`O=C(N[C@H]1CC[C@H](CCNS(=O)(=O)Cc2ccccc2)O[C@H]1CO)c1ccccc1F`: the activity change, negative = inhibition was -3.44% (inactive).
Still for that read-out and setting: with `C[C@@H]1CN([C@H](C)CO)C(=O)Cc2cc(NC(=O)C3CC3)ccc2O[C@H]1CN(C)C` the figure was 32.9% (inactive); with `C[C@@H]1CN([C@H](C)CO)C(=O)Cc2cc(NC(=O)C3CC3)ccc2O[C@@H]1CN(C)Cc1ccc(-c2ccccc2)cc1`, 20.9% (inactive).
Take `COc1ccc(-c2ccc([C@H]3[C@H](C#N)N(C(=O)C4CC4)[C@H]3CO)cc2)cc1`: the activity change, negative = inhibition was -0.086% (inactive).
On to `C[C@@H]1CCCCO[C@@H](CN(C)S(=O)(=O)c2ccc(F)cc2)[C@@H](C)CN([C@H](C)CO)C(=O)c2cc(NC(=O)Nc3cccc4ccccc34)ccc2O1`, for which the activity change, negative = inhibition was 14.6% (inactive).
For the compound `C[C@H]1CN([C@@H](C)CO)C(=O)Cc2cc(NC(=O)CCCN(C)C)ccc2O[C@H]1CN(C)Cc1ccc(Oc2ccccc2)cc1`, the activity change, negative = inhibition was 10.5% (inactive).
As to `CO[C@@H]1CN(C)C(=O)c2cc(NC(=O)c3ccc(Oc4ccccc4)cc3)ccc2OC[C@H](C)NC[C@H]1C`, the activity change, negative = inhibition is 24.9% (inactive).
With `C[C@@H]1CN([C@@H](C)CO)C(=O)Cc2cc(NC(=O)CCCN(C)C)ccc2O[C@H]1CN(C)C`, the activity change, negative = inhibition was -6.21% (inactive).
`O=C(C[C@H]1C[C@@H]2c3cc(NC(=O)Nc4ccccc4)ccc3O[C@@H]2[C@H](CO)O1)NC1CCCC1`: the activity change, negative = inhibition is -0.545% (inactive).
Take `C[C@@H]1CN([C@@H](C)CO)C(=O)Cc2cc(NC(=O)C3CC3)ccc2O[C@@H]1CN(C)Cc1ccc(Cl)c(Cl)c1`: the activity change, negative = inhibition was 16.4% (inactive).

In another assay the test system is Clostridioides difficile clinical isolate growth, OD600, 24 h. Described as above.
Details: not given
For `CO[C@@H](CN(C)S(=O)(=O)c1cn(C)cn1)[C@@H](C)CN(C(=O)Nc1ccc(C(F)(F)F)cc1)[C@H](C)CO`, the IC50 is 24.7 µM.
On to `C[C@@H]1CN([C@@H](C)CO)C(=O)c2cccc(NC(=O)Nc3ccc(F)cc3)c2O[C@@H]1CN(C)Cc1ccc(C(F)(F)F)cc1`, for which the IC50 is 13 µM and 3.27 µM and 6.22 µM.
In the case of `C[C@H](CO)N1C[C@H](C)[C@@H](CN(C)Cc2ccc(Oc3ccccc3)cc2)Oc2ccc(NC(=O)CCCN(C)C)cc2CC1=O`, the IC50 was 64.1 µM.
As to `C[C@@H]1CN([C@@H](C)CO)S(=O)(=O)c2ccc(C#CCC3CCCC3)cc2O[C@H]1CN(C)Cc1ccc(C(=O)O)cc1`, the IC50 was 32.4 µM.
As for `C[C@@H]1CN([C@H](C)CO)S(=O)(=O)c2ccc(/C=C/c3ccccc3)cc2O[C@@H]1CN(C)Cc1ccc(C(=O)O)cc1`, the IC50 is 153 µM.
Regarding `C[C@@H]1CN([C@H](C)CO)S(=O)(=O)c2ccc(C#CCC3CCCC3)cc2O[C@H]1CN(C)C`, the IC50 was 69.3 µM.
